Test results as given in US11464770B2, “Anticancer pharmaceutical composition” (NATIONAL CANCER CENTER, priority 2016, dated 2022).
pIC50: −log10 of the molar value. Where two headings read alike, the source gives them in different places.

Experiments:
[1] = test system: colorectal cancer cell lines (e.g. DLD-1, HCT 116, SW620, HCT-15, HCT-8, RKO); assay: Cell based assay, cell viability (CellTiter-Glo), colorectal cancer cell lines
Outline: (§1)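 Luminescent ATP assay quantified surviving cells after three days of treatment. Compound was applied at final concentrations of 0 to 2 μM, starting 24 h after cells were seeded.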

liver cancer cell lines = assay: Cell based assay, cell viability (CellTiter-Glo), liver cancer cell lines; settings: Homo sapiens, SK-HEP1; SK-HEP-1 cell line
Outline: as §1

[2] = Homo sapiens, DLD-1, 72 hours treatment, read-out: IC50, colorectal cancer cell line DLD-1
[3] = Homo sapiens, HCT 116, 72 hours treatment, read-out: IC50, colorectal cancer cell line HCT 116
[4] = Homo sapiens, HCT-8, 72 hours treatment, read-out: IC50, colorectal cancer cell line HCT-8
[5] = Homo sapiens, HCT-15, 72 hours treatment, read-out: IC50, colorectal cancer cell line HCT-15
[6] = Homo sapiens, HT-29, 72 hours treatment, read-out: IC50, colorectal cancer cell line HT-29
[7] = Homo sapiens, LoVo, 72 hours treatment, read-out: IC50, colorectal cancer cell line LoVo
[8] = Homo sapiens, SW480, 72 hours treatment, read-out: IC50, colorectal cancer cell line SW480
[9] = Homo sapiens, SW-620, SW620, 72 hours treatment, read-out: IC50, colorectal cancer cell line SW620
[10] = RKO, 72 hours treatment, read-out: IC50, colorectal cancer cell line RKO
[11] = Homo sapiens, DLD-1 cells, 72 hours treatment, read-out: IC50, colorectal cancer cell line DLD-1
[12] = Homo sapiens, HCT 116 cells, 72 hours treatment, read-out: IC50, colorectal cancer cell line HCT 116
[13] = Homo sapiens, HCT-8 cells, 72 hours treatment, read-out: IC50, colorectal cancer cell line HCT-8
[14] = Homo sapiens, HCT-15 cells, 72 hours treatment, read-out: IC50, colorectal cancer cell line HCT-15
[15] = Homo sapiens, HT-29 cells, 72 hours treatment, read-out: IC50, colorectal cancer cell line HT-29
[16] = Homo sapiens, LoVo cells, 72 hours treatment, read-out: IC50, colorectal cancer cell line LoVo
[17] = Homo sapiens, RKO cells, 72 hours treatment, read-out: IC50, colorectal cancer cell line RKO
[18] = Homo sapiens, SW480 cells, 72 hours treatment, read-out: IC50, colorectal cancer cell line SW480
[19] = Homo sapiens, SW-620, SW620 cells, 72 hours treatment, read-out: IC50, colorectal cancer cell line SW620

SMILES	pIC50 [1, 2]	pIC50 [1, 3]	pIC50 [1, 4]	pIC50 [1, 5]	pIC50 [1, 6]	pIC50 [1, 7]	pIC50 [1, 8]	pIC50 [1, 9]	pIC50 [1, 10]	pIC50 (liver cancer cell lines)	pIC50 [1, 11]	pIC50 [1, 12]	pIC50 [1, 13]	pIC50 [1, 14]	pIC50 [1, 15]	pIC50 [1, 16]	pIC50 [1, 17]	pIC50 [1, 18]	pIC50 [1, 19]
CC(=O)c1c([S+]([O-])Cc2cc(Cl)ccc2Cl)[nH]c2c(Br)ccc(Cl)c2c1=O (stereo not drawn) [Compound 44, 3-acetyl-8-bromo-5-chloro-2-((2,5-dichlorobenzyl)sulfinyl)quinolin-4(1H)-one]	6.05	5.92	5.78	5.83	< 5.00	< 5.70	5.87	5.84	5.94	6.03	–	–	–	–	–	–	–	–	–
CC(=O)c1c([S+]([O-])Cc2cc(F)cc(F)c2)[nH]c2c(Br)ccc(Cl)c2c1=O (stereo not drawn) [Compound 46, 3-acetyl-8-bromo-5-chloro-2-((3,5-difluorobenzyl)sulfinyl)quinolin-4(1H)-one]	5.90	5.74	< 5.70	5.71	< 5.00	< 5.70	< 5.70	5.76	5.74	5.88	–	–	–	–	–	–	–	–	–
Cc1cc(C[S+]([O-])c2[nH]c3c(Cl)ccc(Cl)c3c(=O)c2C(=O)C(C)C)no1 (stereo not drawn) [Compound 86, 5,8-dichloro-3-isobutyryl-2-(((5-methylisoxazol-3-yl)methyl)sulfinyl)quinolin-4(1H)-one]	–	–	–	–	–	–	–	–	–	6.00	5.96	6.07	5.95	5.90	< 5.00	5.94	6.05	5.90	6.13
CC(=O)c1c([S+]([O-])Cc2cc(C)on2)[nH]c2c(Br)ccc(Cl)c2c1=O (stereo not drawn) [Compound 51, 3-acetyl-8-bromo-5-chloro-2-(((5-methylisoxazol-3-yl)methyl)sulfinyl)quinolin-4(1H)-one]	6.18	6.08	5.92	6.00	< 5.00	5.79	6.02	6.00	5.96	5.88	–	–	–	–	–	–	–	–	–
CC(=O)c1c(S(=O)(=O)Cc2ccccc2)[nH]c2c(Br)ccc(Cl)c2c1=O [Compound 34, 3-acetyl-2-(benzylsulfonyl)-8-bromo-5-chloroquinolin-4(1H)-one]	5.88	5.74	< 5.70	5.71	< 5.00	< 5.70	< 5.70	5.73	< 5.70	5.76	–	–	–	–	–	–	–	–	–
Cc1cc(C[S+]([O-])c2[nH]c3c(Br)ccc(Cl)c3c(=O)c2C(=O)C(C)C)no1 (stereo not drawn) [Compound 95, 8-bromo-5-chloro-3-isobutyryl-2-(((5-methylisoxazol-3-yl)methyl)sulfinyl)quinolin-4(1H)-one]	–	–	–	–	–	–	–	–	–	6.03	5.95	6.12	6.09	5.97	< 5.00	6.04	6.04	5.92	6.19
CC(=O)c1c([S+]([O-])Cc2ccc(C(F)(F)F)o2)[nH]c2c(Br)ccc(Cl)c2c1=O (stereo not drawn) [Compound 72, 3-acetyl-8-bromo-5-chloro-2-(((5-(trifluoromethyl)furan-2-yl)methyl)sulfinyl)quinolin-4(1H)-one]	6.13	6.03	5.91	6.00	< 5.70	5.72	5.85	5.91	5.87	6.14	–	–	–	–	–	–	–	–	–
COc1cccc(C[S+]([O-])c2[nH]c3c(Br)ccc(Cl)c3c(=O)c2C(C)=O)c1 (stereo not drawn) [Compound 55, 3-acetyl-8-bromo-5-chloro-2-((3-methoxybenzyl)sulfinyl)quinolin-4(1H)-one]	5.94	5.74	< 5.70	5.74	< 5.00	< 5.70	< 5.70	5.72	< 5.70	5.84	–	–	–	–	–	–	–	–	–
CC(=O)c1c([S+]([O-])Cc2ccc(SC(F)(F)F)cc2)[nH]c2c(Br)ccc(Cl)c2c1=O (stereo not drawn) [Compound 56, 3-acetyl-8-bromo-5-chloro-2-((4-((trifluoromethyl)thio)benzyl)sulfinyl)quinolin-4(1H)-one]	6.10	5.92	5.77	5.88	< 5.00	< 5.70	< 5.70	5.72	5.82	5.99	–	–	–	–	–	–	–	–	–
